{"source": "patent US5595760A", "about": "“Sustained release of peptides from pharmaceutical compositions” (Delab, priority 1995, dated 1997)", "key": {"[1]": {"assay": "In vivo blood level release profile in dogs (plasma RIA)", "parameters": "species or system dog", "conditions": "gels at sufficient dosages", "procedure": "Once a particular peptide salt is found to gel in any of the in vitro assays described above, an in vivo assay can be used to determine the suitability of that peptide salt for therapeutic use in animals or humans. A blood level release profile for a particular peptide salt can be determined by injecting the peptide salt into an animal, e.g., a Sprague Dawley rat or dog, and testing blood samples taken at specific time intervals, e.g., hourly intervals over 1 to 5 days, or 12 or 24 hour intervals over 5 to 45 days, for the concentration of the peptide. The suitability of a particular peptide gel, or a peptide/carrier gel, for therapeutic delivery of the peptide can thus be determined.\nSpecifically, animals are anaesthetized with pentobarbital (60 mg/kg i.p. for rats), and a jugular vein is cannulated for blood sampling. A test peptide semisolid suspension or solid composition (or standard solution for comparison purposes), e.g., of SOMATULINE™, is injected subcutaneously at a specific dosage, e.g., 1.0, 3.0, or 6.0 mg/kg of SOMATULINE™. […] The amount of peptide in the plasma samples is determined by a standard radioimmunoassay (RIA) technique that allows a direct measurement without extraction of the peptide from the rat plasma. […]"}, "[2]": {"assay": "Solubility of the peptide salt in water", "type": "physicochemical", "conditions": "pH 7.0, 25° C.", "source_text": "As used herein, a \"gelable peptide salt\" is a peptide salt which will form a gel upon contact with bodily fluids. Whether a peptide salt is \"gelable,\" and will have the desired biological properties, can be determined by testing the peptide salt in the in vitro and in vivo assays described below. The term \"peptide\" means a natural or synthetic molecule comprising two or more amino acids linked by the carboxyl group of one amino acid and the amino group of another. Thus, the term includes both polypeptides and proteins. A \"soluble\" peptide salt is one having a solubility of 0.1 mg/ml, and preferably 1.0 mg/ml, in water at a pH of 7.0 and a temperature of 25° C.\nA solution of the peptide composition is undesirable, because such a solution, once injected, will disperse and not form the sustained-release gel of the invention. Thus, the amount of water is carefully selected to be less than that required to dissolve a specific amount of the peptide composition For example, at 25° C., pH 7.0, 1.0 ml or less of water is required when mixed with 26 mg of the acetate salt of SOMATULINE™ to avoid the formation of a solution. By using an amount of water that is less than 50 percent, and preferably less than 20 or 10 percent, of the amount of water required to dissolve a peptide salt, a semisolid or paste-like suspension, rather than a solution, is ensured."}}}
{"smiles": "CC(C)[C@@H]1NC(=O)[C@H](CCCCN)NC(=O)[C@@H](Cc2c[nH]c3ccccc23)NC(=O)[C@H](Cc2ccc(O)cc2)NC(=O)[C@@H](NC(=O)[C@H](N)Cc2ccc3ccccc3c2)CSSC[C@@H](C(=O)N[C@H](C(N)=O)[C@@H](C)O)NC1=O", "note": "[SOMATULINE™]", "values": [{"measurement": "duration of sustained release of at least 1.0 ng/ml of the peptide in the blood", "setting": "[1]", "value": "over one month"}, {"measurement": "solubility", "setting": "[2]", "value": 26.0, "unit": "mg/mL"}]}
